Patent publication US8349310B2, “Attractant compositions and method for attracting biting insects” (Bedoukian Research, Inc., priority 2007, dated 2013)

Experiments:
mosquitoes [1] = experiment: Field trap catch, Hock traps: r-1-octen-3-ol with or without r-1,5Z-octadien-3-ol (Example 2); assay type: in vivo; details: for mosquitoes caught: Traps A and B, twelve day test period, attractant in 2 ml diethyl phthalate, 0.04 g r-1,5Z-octadien-3-ol tested together with 0.2 g r-1-octen-3-ol, r-1-octen-3-ol alone at 2 g
From the text: (§1) Although, as stated above, this invention may be employed with any suitable trap or system, the invention has been tested and employed in a trap or system as described hereinafter. Mosquito traps Model 1012 manufactured by John W. Hock Company in Gainesville, Fla. were used in these tests. The traps use a stream of CO2 directed in the vicinity of a collection bag, with a fan used to blow mosquitoes into the bag. The light supplied to the trap was turned off. The traps were spaced 65-70 feet apart at the edge of a wetland in Danbury, Conn., at least 25 feet from any buildings. The 1,5-octadien-3-ol component was incorporated into a wax lure of the type manufactured by BioSensory, Inc. and placed near a stream of CO2 which was being released at a rate of approximately 150 ml/minute. The traps were operated from approximately 4:00 PM until 9:00 AM the next day. Daytime temperatures were approximately 70-75° F. during the trials.
This test was conducted over a twelve-day period. The test was conducted to determine if 1,5-octadien-3-ol increases the trap catch of mosquitoes when added to a trap already containing the known attractant r-1-octen-3-ol. Traps A in area 1 and B in area 2, as described in Example 1, were employed. Both traps A and B were tested with (1) 0.2 g 100% r-1-octen-3-ol+0.04 g r-1,5Z-octadien-3-ol. in 2 ml diethyl phthalate, and (2) with 2 g 100% r-1-octen-3-ol in 2 ml diethyl phthalate (i.e., with no 1,5Z-octadien-3-ol present). Over the twelve day test period the traps with the 1,5z-octadien-3-ol present caught 239 mosquitoes and the traps without the 1,5Z-octadien-3-ol present caught 221 mosquitoes. Thus, the presence of the 1,5Z-octadien-3-ol increased the catch of mosquitoes by 8%.

mosquitoes [2] = experiment: Field trap catch, Hock Model 1012 traps: CO2 plus 1,5Z-octadien-3-ol vs CO2 alone (Example 1); assay type: in vivo
From the text: as §1
To establish a baseline control the Hock traps with just CO2, and no added 1,5-octadien-3-ol component, were operated in the two areas on three days. The trap in area 1 (Trap A) caught 32 of the mosquitoes caught, and the trap in area 2 (Trap B) caught 23 of the mosquitoes caught. […]

Culex quinquefasciatus = details: electrophysiology test, reported in a published article; cited from earlier work

Work on `C=C[C@H](O)CCCCC` [r-1-octen-3-ol, reference compound] yielded a mosquitoes caught (mosquitoes [1]) of 221 mosquitoes.
For `C=CC(O)C/C=C\CC` (stereo not drawn) [1,5Z-octadien-3-ol], the mosquitoes caught (mosquitoes [2]; Trap A (area 1), compound in trap plus 150 ml/minute CO2, four day test period, Trap B with CO2 only caught 35) was 84 mosquitoes and the “catch ratio Trap A to Trap B” value (mosquitoes [2]; Trap A with compound plus CO2 vs Trap B with CO2 only, four days, baseline catch ratio 1.4 with CO2 only in both traps) was 2.4.
With `C=C[C@H](O)C/C=C\CC` [r-1,5Z-octadien-3-ol] the mosquitoes caught (mosquitoes [1]) was 239 mosquitoes and the “increase of the catch of mosquitoes” value (mosquitoes [1]; r-1-octen-3-ol plus r-1,5Z-octadien-3-ol vs r-1-octen-3-ol alone, twelve days) was 8%.
In the case of `C=CC(O)CC=CCC` (stereo not drawn) [1,5-octadien-3-ol], the “ability to attract mosquitoes” value (Culex quinquefasciatus) is given as “confirmed”.
